Like-named read-outs stand apart in the source and are kept apart here.
What was measured:
[1] = in vitro and in vivo; cited from earlier work
[2] = rats, inhalation; cited from earlier work
[3] = test system: lymphocytic choriomeningitis virus (LCMV)
[4] = mouse, in vivo; cited from earlier work

For `C=O` [formaldehyde], the genotoxicity [1] is listed as “genotoxic in vitro and in vivo” and the carcinogenicity [2] is listed as “induces squamous-cell carcinoma of the nasal cavity”.
With `OO` [H2O2, hydrogen peroxide] the “viral titer after treatment” value (yellow fever virus (YFV)) was “reduced to below the limit of detection”, the “H2O2 concentration at which infectivity is eliminated” value [3] was under 0.1% and the “viral titer after treatment” value [3] was “reduced to below the limit of detection”. The “viral titer after treatment” value (monkeypox virus (MPV)) was “reduced to below the limit of detection”, the “H2O2 concentration after which no infectious virus could be detected” value (vaccinia virus) was at most 0.03% and the “viral titer after treatment” value (vaccinia virus) was “reduced to below the limit of detection”. For the same molecule, the “viral titer after treatment” value (West Nile virus (WNV)) was “reduced to below the limit of detection”.
In the case of `O=C1CCO1` [betapropiolactone], the carcinogenicity [4] is listed as “produce squamous cell carcinomas, lymphomas and hepatomas”.

From US10143740B2, “Inactivating pathogens with oxidizing agents for vaccine production” (priority 2005, dated 2018)
